Measurements as given in US20240072809A1, “ASGPR-BINDING COMPOUNDS FOR THE DEGRADATION OF EXTRACELLULAR PROTEINS” (Avilar Therapeutics, Inc., priority 2020, published 2024).
Read-outs that look alike come from different tables or passages of the source.

Target: ASGPR (Homo sapiens (Human), UniProt P07306)
Assay: Affinity to ASGPR measured by surface plasmon resonance (SPR)
Assay type: binding
Conditions: ASGPR ligands, Table 4, read-out: ASGPR_PR Binding KD

Chain of ASGPR (P07306 whole entry): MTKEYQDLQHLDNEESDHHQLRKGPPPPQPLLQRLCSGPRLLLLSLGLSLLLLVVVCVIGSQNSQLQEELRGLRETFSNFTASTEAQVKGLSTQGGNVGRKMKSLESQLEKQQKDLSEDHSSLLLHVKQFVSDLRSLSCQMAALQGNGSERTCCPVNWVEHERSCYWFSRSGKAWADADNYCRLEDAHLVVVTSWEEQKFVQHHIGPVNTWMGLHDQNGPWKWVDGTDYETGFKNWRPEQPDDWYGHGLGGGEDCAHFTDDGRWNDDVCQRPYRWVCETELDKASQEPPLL

Row | Structure (SMILES) | Kd (class symbols) [µM] | Kd (numeric lower bounds) [µM]
1 | N#Cc1nc(N[C@H]2CO[C@H](CO)[C@H](O)[C@@H]2O)c2cccn2n1 [Compound A373, 4-(((3S,4R,5R,6R)-4,5-dihydroxy-6-(hydroxymethyl)tetrahydro-2H-pyran-3-yl)amino)pyrrolo[2,1-f][1,2,4]triazine-2-carbonitrile] | < 100 | –
2 | OC[C@H]1OC[C@H](Nc2ccnc(Cl)n2)[C@@H](O)[C@H]1O [Compound A317] | < 100 | –
3 | NC(=O)C[C@@H]1CO[C@H](CO)[C@H](O)[C@@H]1O [Compound A399, 2-((3R,4R,5R,6R)-4,5-dihydroxy-6-(hydroxymethyl)tetrahydro-2H-pyran-3-yl)acetamide] | – | > 200
4 | CSc1cc(N[C@H]2CO[C@H](CO)[C@H](O)[C@@H]2O)nc(C#N)n1 [Compound A351, 4-(((3S,4R,5R,6R)-4,5-dihydroxy-6-(hydroxymethyl)tetrahydro-2H-pyran-3-yl)amino)-6-(methylthio)pyrimidine-2-carbonitrile] | – | > 20
5 | OC[C@@]12CO[C@@H](O1)[C@H](Nc1cncc(C(F)(F)F)n1)[C@@H](O)[C@H]2O [Compound A427] | < 100 | –
6 | CO[C@H]1O[C@H](CO)[C@H](O)[C@H](O)[C@H]1Nc1cccc(F)n1 [Compound A380] | < 100 | –
7 | OC[C@H]1O[C@H]2[C@@H]([C@@H](O)[C@H]1O)C2(Cl)Cl [Compound A397, (1S,3R,4R,5R,6R)-7,7-dichloro-3-(hydroxymethyl)-2-oxabicyclo[4.1.0]heptane-4,5-diol] | 100 to 500 | –
8 | OC[C@H]1OC[C@@H](Nc2ncc(Cl)cc2F)[C@@H](O)[C@H]1O [Compound A388] | – | > 20
9 | CO[C@@H]1O[C@H](CO)[C@H](O)[C@H](O)[C@@H]1N1CCOCC1 [Compound A218, (2R,3R,4R,5S,6R)-2-(hydroxymethyl)-6-methoxy-5-morpholinotetrahydro-2H-pyran-3,4-diol] | > 1000 | –
10 | N#Cc1cncc(N[C@H]2CO[C@H](CO)[C@H](O)[C@@H]2O)n1 [Compound A312] | < 100 | –
11 | COc1cc(N[C@H]2CO[C@H](CO)[C@H](O)[C@@H]2O)nc(C#N)n1 [Compound A333] | – | > 10
12 | COc1cc(C#N)nc(N[C@H]2[C@H]3OC[C@](CO)(O3)[C@H](O)[C@@H]2O)n1 [Compound A294, 2-(((1S,2R,3R,4R,5S)-2,3-dihydroxy-1-(hydroxymethyl)-6,8-dioxabicyclo[3.2.1]octan-4-yl)amino)-6-methoxypyrimidine-4-carbonitrile] | < 100 | –
13 | N#Cc1cccc(N[C@H]2CO[C@H](CO)[C@H](O)[C@@H]2O)n1 [Compound A332] | < 100 | –
14 | OC[C@H]1OC[C@@H](CN2CCCCC2)[C@@H](O)[C@H]1O [Compound A213, (2R,3R,4R,5R)-2-(hydroxymethyl)-5-(piperidin-1-ylmethyl)tetrahydro-2H-pyran-3,4-diol] | 100 to 500 | –
15 | OC[C@H]1OC[C@H](Nc2cc(C(F)(F)F)ncn2)[C@@H](O)[C@H]1O [Compound A310] | – | > 20
16 | OC[C@H]1OC[C@@H](NC2=NCCC(C(F)(F)F)=N2)[C@@H](O)[C@H]1O [Compound A389] | – | > 20
17 | CN(C)[C@@H]1CO[C@H](CO)[C@H](O)[C@@H]1O [Compound A393, (2R,3R,4R,5R)-5-(dimethylamino)-2-(hydroxymethyl)tetrahydro-2H-pyran-3,4-diol] | 100 to 500 | –
18 | OC[C@@]12CO[C@@H](O1)[C@H](Nc1nccc(C(F)(F)F)n1)[C@@H](O)[C@H]2O [Compound A289] | < 100 | –
19 | C=CCO[C@H]1O[C@H](CO)[C@H](O)[C@H](O)[C@H]1Nc1nccc(C(F)(F)F)n1 [Compound A406, (2R,3R,4R,5R,6S)-6-(allyloxy)-2-(hydroxymethyl)-5-((4-(trifluoromethyl)pyrimidin-2-yl)amino)tetrahydro-2H-pyran-3,4-diol] | < 100 | –
20 | OC[C@H]1OC[C@H](Nc2nc(-c3cccnc3)ns2)[C@@H](O)[C@H]1O [Compound A358, (2R,3R,4R,5S)-2-(hydroxymethyl)-5-((3-(pyridin-3-yl)-1,2,4-thiadiazol-5-yl)amino)tetrahydro-2H-pyran-3,4-diol] | < 100 | –
